According to ChEMBL document CHEMBL1201862, “PubChem BioAssay data set” (2004):
Calls of active or inactive are those of the source.

Columns and labels:
[1] = HEp-2 cell cytotoxicity, dose response, cytotoxicity control for RSV inhibitor project, HTS (AID 2410); format: functional; conditions: human respiratory syncytial virus
cells [2] = assay: cells
Aminopeptidase N = biological target: T1, Aminopeptidase N (Plasmodium falciparum FcB1/Columbia, UniProt O96935); assay: P. falciparum M1AAP inhibitors, biochemical, fluorogenic H-Leu-NHMec substrate, 1536-well (AID 1445); design: species or system Plasmodium falciparum 3D7, 3D7
T1 sequence (O96935 whole entry): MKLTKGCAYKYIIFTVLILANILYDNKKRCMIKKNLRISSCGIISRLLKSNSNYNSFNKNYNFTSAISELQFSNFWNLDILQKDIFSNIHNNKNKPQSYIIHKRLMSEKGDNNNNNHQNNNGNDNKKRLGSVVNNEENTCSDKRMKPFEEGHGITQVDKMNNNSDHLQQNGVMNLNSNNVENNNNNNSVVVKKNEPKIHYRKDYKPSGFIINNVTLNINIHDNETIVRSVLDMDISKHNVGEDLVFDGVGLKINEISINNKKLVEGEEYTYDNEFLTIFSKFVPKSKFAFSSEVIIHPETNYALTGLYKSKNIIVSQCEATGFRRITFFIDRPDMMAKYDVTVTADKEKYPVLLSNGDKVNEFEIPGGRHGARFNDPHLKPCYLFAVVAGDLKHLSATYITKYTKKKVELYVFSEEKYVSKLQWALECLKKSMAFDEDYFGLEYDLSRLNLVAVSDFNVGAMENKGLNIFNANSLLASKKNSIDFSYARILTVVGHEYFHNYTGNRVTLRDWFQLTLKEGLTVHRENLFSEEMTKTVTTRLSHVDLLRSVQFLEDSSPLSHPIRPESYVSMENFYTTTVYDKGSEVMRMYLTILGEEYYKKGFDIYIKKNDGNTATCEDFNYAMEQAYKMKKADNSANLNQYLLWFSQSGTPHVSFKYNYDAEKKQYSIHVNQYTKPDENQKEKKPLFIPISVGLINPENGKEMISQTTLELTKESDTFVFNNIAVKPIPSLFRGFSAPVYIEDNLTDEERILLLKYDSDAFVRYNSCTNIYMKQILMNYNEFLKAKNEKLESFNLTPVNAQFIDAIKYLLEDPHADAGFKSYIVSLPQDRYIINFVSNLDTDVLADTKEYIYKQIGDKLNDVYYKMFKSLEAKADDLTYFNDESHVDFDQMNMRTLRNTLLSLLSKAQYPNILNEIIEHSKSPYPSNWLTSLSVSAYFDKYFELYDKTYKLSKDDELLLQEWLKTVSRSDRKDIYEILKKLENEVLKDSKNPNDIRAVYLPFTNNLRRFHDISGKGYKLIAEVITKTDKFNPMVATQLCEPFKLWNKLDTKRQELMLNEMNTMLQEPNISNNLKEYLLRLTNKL

[3] = inhibitors of PGC1a acetylation in cells, dose response, cell-based, cherry-picked samples (AID 720514); format: functional;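 note: potency may reflect raised or lowered acetylation signal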
[4] = biological target: T2, Replicative DNA helicase DnaB (Mycobacterium tuberculosis, UniProt P9WMR3); assay: DnaB intein splicing inhibitors, dose response, biochemical, cell-free fluorescence (AID 449749); format: functional
T2 sequence (P9WMR3 whole entry): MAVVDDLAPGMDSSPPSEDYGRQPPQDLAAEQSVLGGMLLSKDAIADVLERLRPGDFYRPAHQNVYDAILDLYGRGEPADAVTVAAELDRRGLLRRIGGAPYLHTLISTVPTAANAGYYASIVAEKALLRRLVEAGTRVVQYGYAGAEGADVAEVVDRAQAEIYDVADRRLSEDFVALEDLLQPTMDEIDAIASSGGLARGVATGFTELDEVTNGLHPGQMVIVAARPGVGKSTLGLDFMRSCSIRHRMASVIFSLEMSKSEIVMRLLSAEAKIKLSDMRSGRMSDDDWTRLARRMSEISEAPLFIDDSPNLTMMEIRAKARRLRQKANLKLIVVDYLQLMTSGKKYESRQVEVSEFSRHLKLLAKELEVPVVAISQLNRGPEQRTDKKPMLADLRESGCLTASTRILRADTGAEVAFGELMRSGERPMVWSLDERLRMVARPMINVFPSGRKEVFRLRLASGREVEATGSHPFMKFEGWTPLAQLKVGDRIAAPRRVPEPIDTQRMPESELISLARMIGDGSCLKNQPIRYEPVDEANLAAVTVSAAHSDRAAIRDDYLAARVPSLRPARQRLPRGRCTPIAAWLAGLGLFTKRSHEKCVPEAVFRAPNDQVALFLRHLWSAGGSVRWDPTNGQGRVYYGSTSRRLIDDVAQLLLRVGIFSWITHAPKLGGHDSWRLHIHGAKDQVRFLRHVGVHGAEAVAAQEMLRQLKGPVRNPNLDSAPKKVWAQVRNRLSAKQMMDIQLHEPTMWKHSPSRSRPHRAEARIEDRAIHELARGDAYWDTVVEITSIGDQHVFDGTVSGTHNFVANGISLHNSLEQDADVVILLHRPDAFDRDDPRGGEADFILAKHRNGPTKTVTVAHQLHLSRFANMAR

Protein RecA = biological target: T3, Protein RecA (Mycobacterium tuberculosis, UniProt P9WHJ3); assay: Fluorescence Cell-Free Homogeneous Dose Retest to Identify Inhibitors of RecA-Intein Splicing Activity. [Related pubchem assays (depositor defined):AID2097, AID2223, AID489010, AID492950]; format: functional
T3 sequence (P9WHJ3 whole entry): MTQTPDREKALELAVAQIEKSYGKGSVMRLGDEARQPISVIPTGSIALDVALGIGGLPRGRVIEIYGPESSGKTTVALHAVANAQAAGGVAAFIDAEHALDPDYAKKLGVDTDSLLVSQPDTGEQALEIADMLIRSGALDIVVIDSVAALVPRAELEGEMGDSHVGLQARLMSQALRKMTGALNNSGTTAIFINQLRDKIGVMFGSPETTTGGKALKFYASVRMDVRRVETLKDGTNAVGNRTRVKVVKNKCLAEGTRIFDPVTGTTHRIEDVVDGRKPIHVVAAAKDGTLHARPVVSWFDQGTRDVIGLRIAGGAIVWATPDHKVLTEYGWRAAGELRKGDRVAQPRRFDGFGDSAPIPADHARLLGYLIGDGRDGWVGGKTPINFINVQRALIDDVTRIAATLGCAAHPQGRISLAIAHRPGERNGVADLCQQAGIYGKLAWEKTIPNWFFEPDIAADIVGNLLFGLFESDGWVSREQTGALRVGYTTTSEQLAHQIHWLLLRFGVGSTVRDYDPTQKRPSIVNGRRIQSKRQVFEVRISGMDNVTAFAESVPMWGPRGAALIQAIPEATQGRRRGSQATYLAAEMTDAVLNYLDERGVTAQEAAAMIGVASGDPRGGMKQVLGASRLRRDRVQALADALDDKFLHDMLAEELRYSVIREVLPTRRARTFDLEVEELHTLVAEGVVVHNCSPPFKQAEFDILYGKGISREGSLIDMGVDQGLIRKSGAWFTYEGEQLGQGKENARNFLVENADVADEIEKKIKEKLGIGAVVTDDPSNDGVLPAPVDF

[5] = HepG2 cell cytotoxicity, dose response, cytotoxicity control for Shn3 inhibitor project, CellTiter-Glo, cherry-picked (AID 624134); format: functional, cell-based
[6] = control 3'UTR Renilla luciferase suppression, dose response, counter-screen for Shn3 inhibitor project, cell-based, Clone20-Shn3RL, cherry-picked (AID 624133); format: functional
[7] = Luminescence Cell-Based Dose Confirmation HTS to Identify Activators of 5'UTR Stem-Loop Driven Alpha-Synuclein mRNA Translation in H4 Neuroglioblastoma Cells. [Related pubchem assays: 1829 (Project Summary), 1814 (Primary HTS)]; format: functional
[8] = Luminescence Cell-Based Dose Response HTS to Identify Activators of Luciferase Translation or Activity in H4 […] Cells. [Related pubchem assays: 1829 (Project Summary), 1814 (Primary HTS)]; format: functional
cells [9] = format: functional, cell-based
H4 = assay: Luminescence Cell-Based Dose Response HTS to Identify Activators of 5'UTR Stem-Loop Driven Prion Protein mRNA Translation in H4 Neuroglioblastoma Cells. [Related pubchem assays: 1829 (Project Summary), 1814 (Primary HTS)]; format: functional; conditions: Homo sapiens
cells [10] = format: functional, cell-based; remark: listed apart in the source
[11] = THP-1 cell cytotoxicity, dose response, cytotoxicity control for non-replicating M. tuberculosis project (AID 489025); format: functional
cells [12] = format: functional
Nonstructural protein 1 = Nonstructural protein 1 (Influenza A virus, UniProt Q194T2); format: functional, Influenza A virus (A/California/07/2009(H1N1))
Chain of Nonstructural protein 1 (Q194T2 whole entry): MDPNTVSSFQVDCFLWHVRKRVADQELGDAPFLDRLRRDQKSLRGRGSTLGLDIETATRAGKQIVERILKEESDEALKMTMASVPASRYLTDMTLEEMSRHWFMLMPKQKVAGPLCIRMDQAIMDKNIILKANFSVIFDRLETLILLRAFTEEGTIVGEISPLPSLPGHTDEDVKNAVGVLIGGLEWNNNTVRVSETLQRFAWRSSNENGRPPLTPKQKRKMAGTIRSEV

[13] = biological target: T4, Heat shock factor protein 1 (Mus musculus, UniProt P38532); assay: HSF1 potentiators in luciferase reporter cells, confirmation, cell-based, NIH3T3, luminescence, dose retest (AID 435004); format: functional;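 note: stress induced by proteasome inhibitor MG132 added 30 min after compound; luciferase reporter driven by HSF1 response element in NIH3T3 cells; actives raise luminescence as potentiators of the MG132 stress response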
T4 sequence (P38532 whole entry): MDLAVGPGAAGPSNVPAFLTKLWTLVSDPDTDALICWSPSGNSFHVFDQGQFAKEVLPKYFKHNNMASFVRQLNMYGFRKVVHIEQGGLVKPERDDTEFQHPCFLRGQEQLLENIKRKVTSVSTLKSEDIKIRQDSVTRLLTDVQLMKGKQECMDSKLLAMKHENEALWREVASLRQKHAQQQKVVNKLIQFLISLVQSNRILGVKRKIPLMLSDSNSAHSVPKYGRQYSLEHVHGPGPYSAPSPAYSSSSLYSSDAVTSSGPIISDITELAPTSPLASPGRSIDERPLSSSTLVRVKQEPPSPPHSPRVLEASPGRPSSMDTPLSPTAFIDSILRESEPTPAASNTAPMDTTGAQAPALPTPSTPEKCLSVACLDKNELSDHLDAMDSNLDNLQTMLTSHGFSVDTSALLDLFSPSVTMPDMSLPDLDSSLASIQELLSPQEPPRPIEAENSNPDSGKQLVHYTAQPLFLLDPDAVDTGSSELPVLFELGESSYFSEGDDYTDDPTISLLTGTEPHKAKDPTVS

[14] = intracellular Trypanosoma cruzi inhibitors in host cells – cell-based, plate reader, cherry-pick samples, set 3, dose response (AID 651818); format: functional;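 note: compounds incubated with infected cells for about four days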
[15] = inhibitors of HIV Env-driven cell fusion, dose response, cherry-pick (AID 652057); format: functional, cell-based
[16] = inhibitors of clade B AD8 Env fusion, dose response, cell-based, cherry-pick (AID 652062); format: functional;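 note: luciferase signal from cell-cell fusion driven by HIV-1 clade B AD8 Env; potency is for inhibitors of fusion seen as a drop in luminescence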

CC(C)[C@H](NC(=O)N1CCn2c1nc1ccccc12)C(=O)NCc1ccccc1Cl
CC50 [1]: 46.3 µM (active) | IC50 (cells [2]): 35.8 µM (active)

COc1ccc(C(=O)NNC(=O)CSc2nnc(-c3ccc(O)cc3)n2C)cc1
IC50 (Aminopeptidase N): 56.8 µM (active)

Cc1cc(OCC(=O)NNC(=O)c2cnccn2)cc(C)c1Cl
AC50 [3]: 29.6 µM (active)

Cc1ccc(-n2c(=O)c3sccc3n(Cc3cc(=O)n4ccccc4n3)c2=O)cc1F
IC50 (cells [2]): 9.86 µM (active)

CC(=O)N1C(=O)/C(=C2\SC(=S)N(NS(=O)(=O)c3ccc(C)cc3)C2=O)c2ccccc21
IC50 (Aminopeptidase N): 3.22 µM (active)

CC1=NN(c2cccc([N+](=O)[O-])c2)C(=O)C1
AC50 [4]: 14.4 µM (active) | EC50 (Protein RecA): 19.5 µM (active) | AC50 [5]: > 70 µM (inactive) | AC50 [6]: 29.5 µM (active)

CCc1ccc(OCC(=O)Nc2ccncc2)c(Br)c1
EC50 [7]: 13.9 µM (active) | EC50 [8]: 17.4 µM (active) | EC50 (cells [9]): > 350 µM (not active) | EC50 (H4): > 120 µM (not active) | EC50 (cells [10]): > 350 µM (not active) | CC50 [11]: > 40 µM (active) | IC50 (cells [12]): 38.1 µM (active)

O=c1c2cc(Cl)ccc2oc2nc3n(c(=O)c12)CCCS3
CC50 [11]: > 40 µM (active) | IC50 (cells [12]): 2.92 µM (active)

CCOc1ccc(CNc2ccc(N3CCN(Cc4ccccc4)CC3)cc2)cc1
IC50 (Nonstructural protein 1): 49.6 µM (active) | EC50 [13]: > 260 µM (inactive)

Cc1cc(C)c(NC(=O)c2ccc(S(=O)(=O)N(C)C)cc2)c(C)n1
AC50 [3]: 29.4 µM (active)

Cc1ccc2c(c1)-c1c(ssc1=S)C(C)(C)N2C(=O)CSC1=NCCS1
IC50 (Nonstructural protein 1): 24.9 µM (active) | AC50 [4]: 28.3 µM (active) | EC50 (Protein RecA): 9.8 µM (active)

COc1ccc(S(=O)(=O)NC2=NC(=O)/C(=C\c3ccco3)S2)cc1
IC50 (Aminopeptidase N): 99.1 µM (active)

COCCOc1ccc(C(F)(F)F)cc1NC(=O)CN1C(=O)NC2(CCCc3ccccc32)C1=O (stereo not given)
AC50 [3]: 33.9 µM (active)

C[C@@H]1CCCCO[C@@H](CN(C)Cc2ccc(C(F)(F)F)cc2)[C@@H](C)CN([C@H](C)CO)C(=O)c2cc(NC(=O)NC3CCCCC3)ccc2O1
AC50 [14]: 6.76 µM (active)

C[C@H](CO)N1C[C@H](C)[C@@H](CN(C)Cc2ccc(-c3ccccc3)cc2)Oc2ccc(NS(=O)(=O)c3ccccc3)cc2C1=O
AC50 [14]: 4.49 µM (active)

C[C@H]1CN([C@@H](C)CO)C(=O)c2cccc(NC(=O)c3nc4ccccc4s3)c2O[C@@H]1CN(C)Cc1ccc(-c2ccccc2)cc1
AC50 [14]: 1.22 µM (active)

COc1ccc(NC(=O)N(C)C[C@H]2Oc3c(NS(=O)(=O)c4ccc(F)cc4)cccc3C(=O)N([C@@H](C)CO)C[C@H]2C)cc1
AC50 [14]: 4.14 µM (active)

C[C@@H]1CCCCO[C@H](CN(C)Cc2ccc(C(F)(F)F)cc2)[C@@H](C)CN([C@H](C)CO)C(=O)c2cc(NC(=O)Nc3cccc4ccccc34)ccc2O1
AC50 [14]: 2.91 µM (active)

C[C@H](C(=O)N(C)C[C@@H]1OCc2ccccc2-c2ccccc2C(=O)N([C@H](C)CO)C[C@@H]1C)c1ccccc1
AC50 [15]: < 0.26 µM (active) | AC50 [16]: < 0.26 µM (active)

C[C@@H]1CN([C@@H](C)CO)S(=O)(=O)c2ccc(-c3ccc(F)cc3)cc2O[C@H]1CN(C)C(=O)C1CCCCC1
AC50 [3]: 17.1 µM (active)
